Assay: (§1) The drug is tested on Z-030 corresponding to mouse gut metagenome with ENA study accession number: PRJEB37062 and ENA sample accession number: ERS12561829 for biotransformation under anaerobic condition. The drug concentrations were measured over 9 timepoints collected between 0 and 24 hours of incubation by liquid-chromatography-coupled mass spectrometry (LC–MS)
Conditions: 2 µM
Also: call rule not given here.

Bacterial Biotransformation	Structure (SMILES)
Compound NOT metabolized	CCN(CC)CCOC(=O)C(Cc1cccc2ccccc12)CC1CCCO1.O=C(O)C(=O)O (stereo not given) [NAFRONYL OXALATE]
Compound NOT metabolized	CCN(CC)C(C)CN1c2ccccc2Sc2ccccc21 (stereo not given) [ETHOPROPAZINE]

Assay: as §1, with “Z-028” for “Z-030”, “ERS12561827” for “ERS12561829”
Conditions: 2 µM

Bacterial Biotransformation	Structure (SMILES)
Compound metabolized	CCN(CC)CCOC(=O)C(Cc1cccc2ccccc12)CC1CCCO1.O=C(O)C(=O)O (stereo not given) [NAFRONYL OXALATE]
Compound NOT metabolized	CCN(CC)C(C)CN1c2ccccc2Sc2ccccc21 (stereo not given) [ETHOPROPAZINE]

Assay: as §1, with “Z-027” for “Z-030”, “to” for “to mouse gut”, “ERS12561826” for “ERS12561829”
Conditions: 2 µM

Bacterial Biotransformation	Structure (SMILES)
Compound NOT metabolized	CCN(CC)CCOC(=O)C(Cc1cccc2ccccc12)CC1CCCO1.O=C(O)C(=O)O (stereo not given) [NAFRONYL OXALATE]
Compound NOT metabolized	CCN(CC)C(C)CN1c2ccccc2Sc2ccccc21 (stereo not given) [ETHOPROPAZINE]

Assay: as §1, with “Z-026” for “Z-030”, “to” for “to mouse gut”, “ERS12561825” for “ERS12561829”
Conditions: 2 µM

Bacterial Biotransformation	Structure (SMILES)
Compound NOT metabolized	CCN(CC)CCOC(=O)C(Cc1cccc2ccccc12)CC1CCCO1.O=C(O)C(=O)O (stereo not given) [NAFRONYL OXALATE]
Compound NOT metabolized	CCN(CC)C(C)CN1c2ccccc2Sc2ccccc21 (stereo not given) [ETHOPROPAZINE]

Assay: as §1, with “Z-024” for “Z-030”, “pig” for “mouse”, “ERS12561823” for “ERS12561829”
Conditions: 2 µM

Bacterial Biotransformation	Structure (SMILES)
Compound metabolized	CCN(CC)CCOC(=O)C(Cc1cccc2ccccc12)CC1CCCO1.O=C(O)C(=O)O (stereo not given) [NAFRONYL OXALATE]
Compound metabolized	CCN(CC)C(C)CN1c2ccccc2Sc2ccccc21 (stereo not given) [ETHOPROPAZINE]

Assay: as §1, with “Z-020” for “Z-030”, “rabbit” for “mouse”, “ERS12561819” for “ERS12561829”
Conditions: 2 µM

Bacterial Biotransformation	Structure (SMILES)
Compound metabolized	CCN(CC)CCOC(=O)C(Cc1cccc2ccccc12)CC1CCCO1.O=C(O)C(=O)O (stereo not given) [NAFRONYL OXALATE]
Compound NOT metabolized	CCN(CC)C(C)CN1c2ccccc2Sc2ccccc21 (stereo not given) [ETHOPROPAZINE]

Assay: as §1, with “Z-010” for “Z-030”, “to” for “to mouse gut”, “ERS12561810” for “ERS12561829”
Conditions: 2 µM

Bacterial Biotransformation	Structure (SMILES)
Compound metabolized	CCN(CC)CCOC(=O)C(Cc1cccc2ccccc12)CC1CCCO1.O=C(O)C(=O)O (stereo not given) [NAFRONYL OXALATE]
Compound metabolized	CCN(CC)C(C)CN1c2ccccc2Sc2ccccc21 (stereo not given) [ETHOPROPAZINE]

Assay: as §1, with “Z-004” for “Z-030”, “to” for “to mouse gut”, “ERS12561804” for “ERS12561829”
Conditions: 2 µM

Bacterial Biotransformation	Structure (SMILES)
Compound metabolized	CCN(CC)CCOC(=O)C(Cc1cccc2ccccc12)CC1CCCO1.O=C(O)C(=O)O (stereo not given) [NAFRONYL OXALATE]
Compound metabolized	CCN(CC)C(C)CN1c2ccccc2Sc2ccccc21 (stereo not given) [ETHOPROPAZINE]

Assay: as §1, with “Z-002” for “Z-030”, “rabbit” for “mouse”, “ERS12561802” for “ERS12561829”
Conditions: 2 µM

Bacterial Biotransformation	Structure (SMILES)
Compound metabolized	CCN(CC)CCOC(=O)C(Cc1cccc2ccccc12)CC1CCCO1.O=C(O)C(=O)O (stereo not given) [NAFRONYL OXALATE]
Compound metabolized	CCN(CC)C(C)CN1c2ccccc2Sc2ccccc21 (stereo not given) [ETHOPROPAZINE]

Assay: as §1, with “Z-001” for “Z-030”, “ERS12561801” for “ERS12561829”
Conditions: 2 µM

Bacterial Biotransformation	Structure (SMILES)
Compound NOT metabolized	CCN(CC)CCOC(=O)C(Cc1cccc2ccccc12)CC1CCCO1.O=C(O)C(=O)O (stereo not given) [NAFRONYL OXALATE]
Compound metabolized	CCN(CC)C(C)CN1c2ccccc2Sc2ccccc21 (stereo not given) [ETHOPROPAZINE]

Assay: as §1, with “WLS-370” for “Z-030”, “human” for “mouse”, “ERS12561793” for “ERS12561829”
Conditions: 2 µM

Bacterial Biotransformation	Structure (SMILES)
Compound NOT metabolized	CCN(CC)CCOC(=O)C(Cc1cccc2ccccc12)CC1CCCO1.O=C(O)C(=O)O (stereo not given) [NAFRONYL OXALATE]
Compound metabolized	CCN(CC)C(C)CN1c2ccccc2Sc2ccccc21 (stereo not given) [ETHOPROPAZINE]

Assay: as §1, with “WLS-170” for “Z-030”, “human” for “mouse”, “ERS12561762” for “ERS12561829”
Conditions: 2 µM

Bacterial Biotransformation	Structure (SMILES)
Compound metabolized	CCN(CC)CCOC(=O)C(Cc1cccc2ccccc12)CC1CCCO1.O=C(O)C(=O)O (stereo not given) [NAFRONYL OXALATE]
Compound metabolized	CCN(CC)C(C)CN1c2ccccc2Sc2ccccc21 (stereo not given) [ETHOPROPAZINE]

Assay: as §1, with “WLS-090” for “Z-030”, “human” for “mouse”, “ERS12561753” for “ERS12561829”
Conditions: 2 µM

Bacterial Biotransformation	Structure (SMILES)
Compound metabolized	CCN(CC)CCOC(=O)C(Cc1cccc2ccccc12)CC1CCCO1.O=C(O)C(=O)O (stereo not given) [NAFRONYL OXALATE]
Compound metabolized	CCN(CC)C(C)CN1c2ccccc2Sc2ccccc21 (stereo not given) [ETHOPROPAZINE]

Conditions: human gut metagenome, 24 h, 2 µM

Bacterial Biotransformation	Structure (SMILES)
Compound metabolized	CCN(CC)CCOC(=O)C(Cc1cccc2ccccc12)CC1CCCO1.O=C(O)C(=O)O (stereo not given) [NAFRONYL OXALATE]
Compound metabolized	CCN(CC)C(C)CN1c2ccccc2Sc2ccccc21 (stereo not given) [ETHOPROPAZINE]

Conditions: human gut metagenome, 24 h, 2 µM
Remark: another data set of the same source

Bacterial Biotransformation	Structure (SMILES)
Compound metabolized	CCN(CC)CCOC(=O)C(Cc1cccc2ccccc12)CC1CCCO1.O=C(O)C(=O)O (stereo not given) [NAFRONYL OXALATE]
Compound metabolized	CCN(CC)C(C)CN1c2ccccc2Sc2ccccc21 (stereo not given) [ETHOPROPAZINE]

Conditions: human gut metagenome, 24 h, 2 µM
Remark: another data set of the same source

Bacterial Biotransformation	Structure (SMILES)
Compound metabolized	CCN(CC)CCOC(=O)C(Cc1cccc2ccccc12)CC1CCCO1.O=C(O)C(=O)O (stereo not given) [NAFRONYL OXALATE]
Compound metabolized	CCN(CC)C(C)CN1c2ccccc2Sc2ccccc21 (stereo not given) [ETHOPROPAZINE]

Conditions: human gut metagenome, 24 h, 2 µM
Remark: another data set of the same source

Bacterial Biotransformation	Structure (SMILES)
Compound metabolized	CCN(CC)CCOC(=O)C(Cc1cccc2ccccc12)CC1CCCO1.O=C(O)C(=O)O (stereo not given) [NAFRONYL OXALATE]
Compound metabolized	CCN(CC)C(C)CN1c2ccccc2Sc2ccccc21 (stereo not given) [ETHOPROPAZINE]

Conditions: human gut metagenome, 24 h, 2 µM
Remark: another data set of the same source

Bacterial Biotransformation	Structure (SMILES)
Compound metabolized	CCN(CC)CCOC(=O)C(Cc1cccc2ccccc12)CC1CCCO1.O=C(O)C(=O)O (stereo not given) [NAFRONYL OXALATE]
Compound metabolized	CCN(CC)C(C)CN1c2ccccc2Sc2ccccc21 (stereo not given) [ETHOPROPAZINE]

Conditions: human gut metagenome, 24 h, 2 µM
Remark: another data set of the same source

Bacterial Biotransformation	Structure (SMILES)
Compound metabolized	CCN(CC)CCOC(=O)C(Cc1cccc2ccccc12)CC1CCCO1.O=C(O)C(=O)O (stereo not given) [NAFRONYL OXALATE]
Compound metabolized	CCN(CC)C(C)CN1c2ccccc2Sc2ccccc21 (stereo not given) [ETHOPROPAZINE]

Conditions: human gut metagenome, 24 h, 2 µM
Remark: another data set of the same source

Bacterial Biotransformation	Structure (SMILES)
Compound metabolized	CCN(CC)CCOC(=O)C(Cc1cccc2ccccc12)CC1CCCO1.O=C(O)C(=O)O (stereo not given) [NAFRONYL OXALATE]
Compound metabolized	CCN(CC)C(C)CN1c2ccccc2Sc2ccccc21 (stereo not given) [ETHOPROPAZINE]

Reference: ChEMBL document CHEMBL5724914, “Linking interpersonal differences in gut microbiota composition and drug biotransformation activity” (2024)
